Data on 33 molecules can be found in patent publication US10344017B2, “Pyrrolcarboxamide derivatives for the inhibition of ERK5” (CANCER RESEARCH TECHNOLOGY LIMITED, priority 2014, dated 2019).

The experiment has as its target T1, ERK5 (Homo sapiens, UniProt Q13164).
T1 construct: made in house
As to the kind of experiment: ERK5 IMAP assay (fluorescence polarisation). Format: biochemical. The settings on record: average (e.g. geometric mean) where more than one data point; read-out: ERK5 IC50. The method, then:
The assay buffer was prepared using 0.01% Tween®-20 5× stock, supplied as part of IMAP™ FP Progressive Binding System Kit (Molecular Devices R7436) and diluted to 1× using miliQ H2O. 1 μL of a 1M DTT stock was added for every 1 mL of 1× assay buffer to give a final concentration of 1 mM DTT.
ERK5 was expressed and purified at CRT-DL by Leon Pang and Sue Young. Aliquots were stored at −80° C. The ERK5 working solution was used at a […] final dilution in assay buffer. […] For 1 plate, […] of ERK5 stock was added to 2262 μL of 1× assay buffer.
To prepare the IMAP™ binding solution for one plate 20.5 μL of IMAP™ binding reagent stock, 1476 μL of 1× binding buffer A (60%), and 984 μL of binding buffer B (40%) (IMAP™ FP Progressive screening express kit (Molecular Devices R8127) was added to 9819.5 μL of milliQ H2O.
1 μL of inhibitor (in 60:40 H2O/DMSO) or 60:40 H2O/DMSO (for controls and blanks) were dry-spotted into the relevant wells of a 384-well assay plate using the MATRIX PlateMate® Plus. 5 μL of ERK5 working solution was added to test and control wells, and 5 μL of 1× assay buffer added to blanks; 4 μL of ATP/substrate working solution was added to all wells using a Matrix multichannel pipette. The plate was sealed using DMSO resistant clear seal and incubated for 2 h at 37° C. 1 μL of the kinase reaction mixture from the first plate was dry spotted into a second 384-well assay plate using the MATRIX PlateMate® Plus. 9 μL of assay buffer was added, followed by 30 μL of IMAP™ binding solution using a multichannel pipette. The plate was incubated at RT in darkness for 2 h. The assay plate was then read on an Analyst HT plate reader (Molecular Devices) using the settings described below: […]

T1 sequence (Q13164 whole entry): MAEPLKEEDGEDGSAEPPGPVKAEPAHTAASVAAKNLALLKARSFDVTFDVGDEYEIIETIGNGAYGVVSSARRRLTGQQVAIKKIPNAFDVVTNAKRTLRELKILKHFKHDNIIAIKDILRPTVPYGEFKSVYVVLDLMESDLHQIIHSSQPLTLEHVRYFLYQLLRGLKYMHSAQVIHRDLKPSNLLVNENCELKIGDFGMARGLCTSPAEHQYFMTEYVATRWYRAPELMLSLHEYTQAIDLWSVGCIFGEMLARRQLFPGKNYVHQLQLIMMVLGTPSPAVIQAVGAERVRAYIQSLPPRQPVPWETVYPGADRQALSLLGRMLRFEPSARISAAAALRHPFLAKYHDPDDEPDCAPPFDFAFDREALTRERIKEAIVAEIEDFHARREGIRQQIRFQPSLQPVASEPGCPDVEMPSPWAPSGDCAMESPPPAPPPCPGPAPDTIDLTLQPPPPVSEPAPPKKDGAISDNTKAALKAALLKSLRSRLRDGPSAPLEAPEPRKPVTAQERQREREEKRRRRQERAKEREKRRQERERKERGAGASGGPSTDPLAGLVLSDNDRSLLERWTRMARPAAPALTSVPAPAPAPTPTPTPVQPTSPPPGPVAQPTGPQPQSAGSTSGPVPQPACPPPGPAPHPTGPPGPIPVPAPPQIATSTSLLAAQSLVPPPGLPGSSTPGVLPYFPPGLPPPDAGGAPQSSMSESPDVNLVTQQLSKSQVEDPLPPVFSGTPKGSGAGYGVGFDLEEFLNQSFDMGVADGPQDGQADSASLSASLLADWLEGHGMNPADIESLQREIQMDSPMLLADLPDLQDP

For the molecule `CS(=O)(=O)CCNc1ccc(NC(=O)c2cc(C(=O)c3c(Cl)ccc(Cl)c3F)c[nH]2)cn1` [Example 263, 4-(3,6-Dichloro-2-fluorobenzoyl)-N-(6-((2-(methylsulfonyl)ethyl)amino)pyridin-3-yl)-1H-pyrrole-2-carboxamide], the IC50 worked out at 0.211 µM.

With `COc1ccc(Cl)c(C(=O)c2c[nH]c(C(=O)Nc3cncnc3)c2)c1F` [Example 74, 4-(6-chloro-2-fluoro-3-methoxybenzoyl)-N-(pyrimidin-5-yl)-1H-pyrrole-2-carboxamide], the IC50 was found to be 0.202 µM.

As for `O=Cc1ccc(F)c(C(=O)c2c[nH]c(C(=O)Nc3cccnc3)c2)c1F` [Example 265, 4-(2,6-difluoro-3-formylbenzoyl)-N-(pyridin-3-yl)-1H-pyrrole-2-carboxamide], the IC50 was found to be 7.45 µM.

Turning to `O=C(Nc1ccncn1)c1cc(C(=O)c2c(F)cccc2Br)c[nH]1` [Example 133, 4-(2-Bromo-6-fluorobenzoyl)-N-(pyrimidin-4-yl)-1H-pyrrole-2-carboxamide], the IC50 was determined as 1.8 µM.

With `O=C(Nc1cnn(C2CCOCC2)c1)c1cc(C(=O)c2c(Cl)ccc(Cl)c2F)c[nH]1` [Example 237, 4-(3,6-Dichloro-2-fluorobenzoyl)-N-(1-(tetrahydro-2H-pyran-4-yl)-1H-pyrazol-4-yl)-1H-pyrrole-2-carboxamide], the IC50 came out at 0.148 µM.

Consider `O=C(Nc1ccc(F)nc1)c1cc(C(=O)c2c(F)cccc2Cl)c[nH]1` [Example 152, 4-(2-Chloro-6-fluorobenzoyl)-N-(6-fluoropyridin-3-yl)-1H-pyrrole-2-carboxamide], for which the IC50 was 1.49 µM.

Turning to `Cc1ccc(NC(=O)c2cc(C(=O)c3c(F)cccc3Cl)c[nH]2)c[n+]1[O-]` [Example 118, 5-(4-(2-Chloro-6-fluorobenzoyl)-1H-pyrrole-2-carboxamido)-2-methylpyridine 1-oxide], the IC50 was found to be 1.31 µM.

In the case of `O=C(NC1CCOCC1)c1cc(C(=O)c2c(F)cccc2Br)c[nH]1` [Example 198, 4-(2-Bromo-6-fluorobenzoyl)-N-(tetrahydro-2H-pyran-4-yl)-1H-pyrrole-2-carboxamide], the IC50 came to 1.22 µM.

Regarding `O=C(Nc1ccncn1)c1cc(C(=O)c2c(F)cccc2F)c[nH]1` [Example 130, 4-(2,6-Difluorobenzoyl)-N-(pyrimidin-4-yl)-1H-pyrrole-2-carboxamide], the IC50 amounted to 2.14 µM.

For `COc1ccc(Cl)c(C(=O)c2c[nH]c(C(=O)Nc3cnn(Cc4cccnc4)c3)c2)c1F` [Example 66, 4-(6-Chloro-2-fluoro-3-methoxybenzoyl)-N-(1-(pyridin-3-ylmethyl)-1H-pyrazol-4-yl)-1H-pyrrole-2-carboxamide], the IC50 turned out to be 0.0166 µM.

In the case of `CC(=O)OC1CCN(c2ncc(NC(=O)c3cc(C(=O)c4c(Cl)ccc(Cl)c4F)c[nH]3)cn2)CC1` [Example 22, 1-(5-(4-(3,6-Dichloro-2-fluorobenzoyl)-1H-pyrrole-2-carboxamido)pyrimidin-2-yl)piperidin-4-yl acetate], the IC50 turned out to be 9.66 µM.

Turning to `O=C(Nc1cccnc1)c1cc(C(=O)c2c(F)ccc(Cl)c2F)c[nH]1` [Example 210, 4-(3-Chloro-2,6-difluorobenzoyl)-N-(pyridin-3-yl)-1H-pyrrole-2-carboxamide], the IC50 turned out to be 0.291 µM.

On to `CN1CCN(c2cc(NC(=O)c3cc(C(=O)c4c(Cl)ccc(Cl)c4F)c[nH]3)ccn2)CC1` [Example 37, 4-(3,6-Dichloro-2-fluorobenzoyl)-N-(2-(4-methylpiperazin-1-yl)pyridin-4-yl)-1H-pyrrole-2-carboxamide], for which the 50% inhibitory concentration (IC50) is 0.036 µM.

Regarding `O=C(Nc1cccnc1)c1cc(C(=O)c2c(Cl)ccc(OC(CCl)CCl)c2F)c[nH]1` [Example 271, 4-(6-Chloro-3-((1,3-dichloropropan-2-yl)oxy)-2-fluorobenzoyl)-N-(pyridin-3-yl)-1H-pyrrole-2-carboxamide], the IC50 is 1.26 µM.

For `O=C(Nc1ccncc1)c1cc(C(=O)c2cccc(Cl)c2Cl)c[nH]1` [Example 158, 4-(2,3-Dichlorobenzoyl)-N-(pyridin-4-yl)-1H-pyrrole-2-carboxamide], the IC50 turned out to be 5.47 µM.

For `Cc1ccc(F)c(C(=O)c2c[nH]c(C(=O)Nc3cncnc3)c2)c1F` [Example 218, 4-(2,6-Difluoro-3-methylbenzoyl)-N-(pyrimidin-5-yl)-1H-pyrrole-2-carboxamide], the IC50 was determined as 0.779 µM.

Take `Cc1ccc(F)c(C(=O)c2c[nH]c(C(=O)NC3CCN(C)CC3)c2)c1` [Example 234, 4-(2-Fluoro-5-methylbenzoyl)-N-(1-methylpiperidin-4-yl)-1H-pyrrole-2-carboxamide]: the IC50 turned out to be 4.37 µM.

For `Cc1ccncc1NC(=O)c1cc(C(=O)c2c(F)cccc2Cl)c[nH]1` [Example 87, 4-(2-Chloro-6-fluorobenzoyl)-N-(4-methylpyridin-3-yl)-1H-pyrrole-2-carboxamide], the IC50 amounted to 1.26 µM.

In the case of `O=C(Nc1cnc(N2CCOCC2)nc1)c1cc(C(=O)c2c(Cl)ccc(Cl)c2F)c[nH]1` [Example 20, 4-(3,6-Dichloro-2-fluorobenzoyl)-N-(2-morpholinopyrimidin-5-yl)-1H-pyrrole-2-carboxamide], the IC50 was 1.5 µM.

In the case of `Cc1cc(NC(=O)c2cc(C(=O)c3c(F)cccc3Cl)c[nH]2)ccn1` [Example 136, 4-(2-Chloro-6-fluorobenzoyl)-N-(2-methylpyridin-4-yl)-1H-pyrrole-2-carboxamide], the IC50 was found to be 0.401 µM.

Take `O=C(Nc1ccc2cn[nH]c2c1)c1cc(C(=O)c2c(F)cccc2Cl)c[nH]1` [Example 156, 4-(2-Chloro-6-fluorobenzoyl)-N-(1H-indazol-6-yl)-1H-pyrrole-2-carboxamide]: the IC50 was 1.54 µM.

With `COc1ccc(Cl)c(C(=O)c2c[nH]c(C(=O)Nc3cnc(CC4CCN(C)CC4)nc3)c2)c1F` [Example 247, 4-(6-Chloro-2-fluoro-3-methoxybenzoyl)-N-(2-((1-methylpiperidin-4-yl)methyl)pyrimidin-5-yl)-1H-pyrrole-2-carboxamide], the IC50 was 0.0181 µM.

Take `O=C(Nc1cnccc1N1CCCC1)c1cc(C(=O)c2c(Cl)ccc(Cl)c2F)c[nH]1` [Example 98, 4-(3,6-Dichloro-2-fluorobenzoyl)-N-(4-(pyrrolidin-1-yl)pyridin-3-yl)-1H-pyrrole-2-carboxamide]: the IC50 worked out at 8.71 µM.

As for `CCOc1ccncc1NC(=O)c1cc(C(=O)c2c(F)cccc2Cl)c[nH]1` [Example 91, 4-(2-Chloro-6-fluorobenzoyl)-N-(4-ethoxypyridin-3-yl)-1H-pyrrole-2-carboxamide], the IC50 came out at 2.31 µM.

For the molecule `CC(=O)N1CCC(NC(=O)c2cc(C(=O)c3c(F)cccc3Cl)c[nH]2)CC1` [Example 6, N-(1-Acetylpiperidin-4-yl)-4-(2-chloro-6-fluorobenzoyl)-1H-pyrrole-2-carboxamide], the IC50 is 0.459 µM.

In the case of `O=C(NC1CCNCC1)c1cc(C(=O)c2c(F)ccc(F)c2Cl)c[nH]1` [Example 215, 4-(2-Chloro-3,6-difluorobenzoyl)-N-(piperidin-4-yl)-1H-pyrrole-2-carboxamide], the IC50 is 0.694 µM.

As to `CCc1ccc(F)c(C(=O)c2c[nH]c(C(=O)Nc3cccnc3)c2)c1F` [Example 162], the IC50 turned out to be 1.33 µM.

With `O=C(Nc1cccnc1N1CCCC1)c1cc(C(=O)c2c(F)cccc2Cl)c[nH]1` [Example 80, 4-(2-Chloro-6-fluorobenzoyl)-N-(2-(pyrrolidin-1-yl)pyridin-3-yl)-1H-pyrrole-2-carboxamide], the IC50 was 7.98 µM.

Consider `O=C(Nc1cnn(C2CCN(CC(F)(F)F)CC2)c1)c1cc(C(=O)c2c(Cl)ccc(Cl)c2F)c[nH]1` [Example 42, 4-(3,6-Dichloro-2-fluorobenzoyl)-N-(1-(1-(2,2,2-trifluoroethyl)piperidin-4-yl)-1H-pyrazol-4-yl)-1H-pyrrole-2-carboxamide], for which the IC50 came out at 3.55 µM.

Turning to `Cc1cc(NC(=O)c2cc(C(=O)c3c(F)cccc3Br)c[nH]2)cc(C)n1` [Example 135, 4-(2-Bromo-6-fluorobenzoyl)-N-(2,6-dimethylpyridin-4-yl)-1H-pyrrole-2-carboxamide], the IC50 worked out at 0.653 µM.

For `COc1ccc(Cl)c(C(=O)c2c[nH]c(C(=O)Nc3ccc(CN4CCOCC4)nc3)c2)c1F` [Example 116, 4-(6-Chloro-2-fluoro-3-methoxybenzoyl)-N-(6-(morpholinomethyl)pyridin-3-yl)-1H-pyrrole-2-carboxamide], the IC50 was determined as 0.0218 µM.

As to `O=C(Nc1cc[nH]c(=O)n1)c1cc(C(=O)c2c(F)cccc2Cl)c[nH]1` [Example 146, 4-(2-Chloro-6-fluorobenzoyl)-N-(2-oxo-1,2-dihydropyrimidin-4-yl)-1H-pyrrole-2-carboxamide], the IC50 amounted to 2.94 µM.

For `O=C(Nc1ccnc(N2CCCC2)c1)c1cc(C(=O)c2c(F)cccc2Cl)c[nH]1` [Example 35, 4-(2-Chloro-6-fluorobenzoyl)-N-(2-(pyrrolidin-1-yl)pyridin-4-yl)-1H-pyrrole-2-carboxamide], the IC50 turned out to be 0.523 µM.
